Reference: patent publication EP0051773A1, “Penicillins, their salts, process for their preparation and pharmaceutical compositions containing them” (Dr. Karl Thomae GmbH, priority 1980, dated 1982)
In brackets after ≈: the same amount, converted by molar mass.

Columns and labels:
[1] = system: Enterobacter cloacae ATCC 13 047; test: serial dilution test in microtiter system (bacteriostasis, MIC); type: cell-based; conditions: ATCC13, liquid medium, 18 to 20 h at 37°C, read-out: MHK-Werte Eb. cloacae 13 047
Description: (§1) Für die Untersuchungen wurde die Methode des Reihenverdünnungstestes im Mikrotitersystem angewandt. Die Prüfung der Substanzen auf Bakteriostase erfolgte in flüssigem Medium. Es wurde die Bakteriostasewirkung bei folgenden Konzentrationen untersucht.
(§2) Es wurde ein Nährboden folgender Zusammensetzung benutzt: 10 g Pepton, 8 g Fleischextrakt-Oxoid, 3 g Natriumschlorid, 2 g sek. Natriumphosphat werden mit dest. Wasser auf 1000 ml aufgefüllt (pH 7,2-7,4). Lediglich bei der Testung gegen Streptokokken wurde 1% Glucose hinzugefügt. Das Alter der Primärkulturen betrug etwa 20 Stunden. Die Einstellung der Keimsuspension erfolgte am Photometer (nach "Eppendorf") (Reagenzglas-Durchmesser 14 mm, Filter 546 nm) anhand der Trübung einer Bariumsulfat-Vergleichssuspension, die durch eine Bariumsulfat-Aufschwemmung erzeugt wurde, welche durch die Zugabe von 3,0 ml 1%ige Bariumchloridlösung in 97 ml 1%ige Schwefelsäure entstand. Nach der Einstellung wurden Streptococcus Aronson im Verhältnis 1:15 und die übrigen Testkeime im Verhältnis 1:1500 mit einer Kochsalzlösung weiter verdünnt.
(§3) 16 mg der jeweiligen Substanz wurden in 10 ml-Meßkolben eingewogen und mit dem Lösungsmittel bis zur Marke aufgefüllt. Die weitere Verdünnungsreihe wurde mit destilliertem Wasser oder dem jeweiligen Lösungsmittel hergestellt.
(§4) Die Vertiefungen der Mikrotiterplatten wurden mit 0,2 ml Nährmedium, 0,01 ml der entsprechenden Substanzverdünnung und mit einem Tropfen Keimsuspension (0,01 ml) beschickt und 18 bis 20 Stunden bei 37°C bebrütet. Eine Lösungsmittelkontrolle wurde stets mitgeführt.
(§5) Die Ablesung wurde makroskopisch vorgenommen, wobei die jeweilige Grenkonzentration (= niedrigste noch bakteriostatisch wirksame Konzentration) ermittelt wurde.
(§6) Als Testorganismen wurden benützt: - Staphylococcus aureus SG 511, Escherichia coli ATCC 11 775, Pseudomonas aeruginosa Hamburgensis und Walter, Serratia marcescens ATCC 13 880, Klebsiella pneumoniae ATCC 10 031 und BC 6, Proteus mirabilis Hamburgensis, Proteus rettgeri BC 7 und Enterobacter cloacae ATCC 13 047.
(§7) In der folgenden Tabelle 2 sind die ermittelten minimalen Hemmkonzentrationen (MIC) für typische Vertreter der erfindungsgemäßen Verbindungen aufgeführt, wobei sich die Ziffern auf die Penicilline der Tabelle 1 Seite 18 beziehen.

[2] = system: Escherichia coli ATCC 11 775; test: as above; type: cell-based; conditions: ATCC11, liquid medium, 18 to 20 h at 37°C, read-out: MHK-Werte E.coli ATCC 11 755
Description: as §1, §2, §3, §4, §5, §6, §7

[3] = system: Klebsiella pneumoniae ATCC 10 031; test: as above; type: cell-based; conditions: ATCC10, liquid medium, 18 to 20 h at 37°C, read-out: MHK-Werte Kl. pneum. ATCC 10 031
Description: as §1, §2, §3, §4, §5, §6, §7

[4] = system: Klebsiella pneumoniae BC 6; test: as above; type: cell-based; conditions: BC6, liquid medium, 18 to 20 h at 37°C, read-out: MHK-Werte Kl. pneum. BC 6
Description: as §1, §2, §3, §4, §5, §6, §7

[5] = system: Proteus mirabilis Hamburgensis; test: as above; type: cell-based; conditions: liquid medium, 18 to 20 h at 37°C, read-out: MHK-Werte Prot. mir. Hbg.
Description: as §1, §2, §3, §4, §5, §6, §7

Proteus rettgeri BC 7 = test: as above; type: cell-based; conditions: Providencia rettgeri, BC7; liquid medium, 18 to 20 h at 37°C; read-out: MHK-Werte Prot. rettg. BC 7
Description: as §1, §2, §3, §4, §5, §6, §7

[6] = system: Pseudomonas aeruginosa Hamburgensis; test: as above; type: cell-based; conditions: liquid medium, 18 to 20 h at 37°C, read-out: MHK-Werte Pseud. aerug. Hbg.
Description: as §1, §2, §3, §4, §5, §6, §7

[7] = system: Pseudomonas aeruginosa Walter; test: as above; type: cell-based; conditions: liquid medium, 18 to 20 h at 37°C, read-out: MHK-Werte Pseud. aerug. Walter
Description: as §1, §2, §3, §4, §5, §6, §7

[8] = system: Serratia marcescens ATCC 13 880; test: as above; type: cell-based; conditions: ATCC13, liquid medium, 18 to 20 h at 37°C, read-out: MHK-Werte Serr. marcesc. ATCC 13 880
Description: as §1, §2, §3, §4, §5, §6, §7

[9] = system: Staphylococcus aureus SG 511; test: as above; type: cell-based; conditions: SG511, liquid medium, 18 to 20 h at 37°C, read-out: MHK-Werte Staph. aureus SG 511
Description: as §1, §2, §3, §4, §5, §6, §7

E.coli ATCC 11 775 = test: experimental intraperitoneal infection in mice, ED50 (survival); type: in vivo, Mäuse; conditions: Escherichia coli, ATCC 11 / ATCC 1175, sc, 168 h; female NMRI mice, i.p. infection, s.c. application, treated once, 7 days observation
Description: Eine Reihe der erfindungsgemäßen Verbindungen wurde in vivo bei experimentellen Infektionen an Mäusen untersucht. Man verwendete als pathogene Bakterien E.coli ATCC 11 775 und Pseudomonas aeruginosa Walter. Es wurde eine intraperitoneale Infektion mit 0,2 ml einer 5%igen Mucinsuspension der Bakterien gesetzt. Dies entspricht etwa 2x10^6 Keime E.coli bzw. 8x10^5 Keime Pseudomonas/Maus. Weibliche Mäuse vom Stamm NMRI wurden in Gruppen von jeweils 10 Tieren aufgeteilt, zwei Gruppen blieben unbehandelt, die restlichen Gruppen wurden mit verschiedenen Dosen der jeweiligen erfindungsgemäßen Penicilline zur Bestimmung der ED50 (Dosis, bei der 50 % der Tiere überleben) behandelt. Bei der E.coli-Infektion wurde einmal therapiert. Bei der Pseudomonas-Infektion wurde dreimal behandelt.
Der Beobachtungszeitraum betrug in beiden Fällen 7 Tage. Die Ergebnisse dieser Teste mit repräsentativen Vertretern der erfindungsgemäßen Penicilline sind in der Tabelle 3 dargestellt.

| SMILES | MIC [1] [µg/mL] | MIC [2] [µg/mL] | MIC [3] [µg/mL] | MIC [4] [µg/mL] | MIC [5] [µg/mL] | MIC (Proteus rettgeri BC 7) [µg/mL] | MIC [6] [µg/mL] | MIC [7] [µg/mL] | MIC [8] [µg/mL] | MIC [9] [µg/mL] | ED50 (E.coli ATCC 11 775) [mg/kg] |
| --- | --- | --- | --- | --- | --- | --- | --- | --- | --- | --- | --- |
| CC1(C)S[C@@H]2[C@H](NC(=O)[C@H](NC(=O)Nc3cnc(Nc4ccc(S(N)(=O)=O)cc4)nc3O)C3=CCC=CC3)C(=O)N2[C@H]1C(=O)O [Verbindung 12] | – | – | – | – | – | – | – | – | – | – | 5 |
| CC1(C)S[C@@H]2[C@H](NC(=O)[C@H](NC(=O)Nc3cnc(Nc4cccc(S(N)(=O)=O)c4)nc3O)c3ccc(O)cc3)C(=O)N2[C@H]1C(=O)O [Verbindung 5] | 1 (≈ 1.49 µM) | 0.25 (≈ 0.372 µM) | 2 (≈ 2.97 µM) | 2 (≈ 2.97 µM) | 0.06 (≈ 0.0892 µM) | 0.25 (≈ 0.372 µM) | 2 (≈ 2.97 µM) | 2 (≈ 2.97 µM) | 0.25 (≈ 0.372 µM) | 0.5 (≈ 0.743 µM) | – |
| CNS(=O)(=O)c1ccc(Nc2ncc(NC(=O)N[C@@H](C(=O)N[C@@H]3C(=O)N4[C@@H]3SC(C)(C)[C@@H]4C(=O)O)c3ccccc3)c(O)n2)cc1 [Verbindung 8] | 0.5 (≈ 0.745 µM) | 0.12 (≈ 0.179 µM) | 0.5 (≈ 0.745 µM) | 1 (≈ 1.49 µM) | 0.03 (≈ 0.0447 µM) | 0.5 (≈ 0.745 µM) | 1 (≈ 1.49 µM) | 2 (≈ 2.98 µM) | 0.12 (≈ 0.179 µM) | 0.12 (≈ 0.179 µM) | – |
| CC1(C)S[C@@H]2[C@H](NC(=O)C(NC(=O)Nc3cnc(NCc4ccccc4)nc3O)c3ccccc3)C(=O)N2[C@H]1C(=O)O (stereo partly drawn) [Verbindung 61] | 1 (≈ 1.69 µM) | 0.25 (≈ 0.423 µM) | 1 (≈ 1.69 µM) | 2 (≈ 3.38 µM) | 0.25 (≈ 0.423 µM) | 0.5 (≈ 0.845 µM) | 2 (≈ 3.38 µM) | 2 (≈ 3.38 µM) | 0.5 (≈ 0.845 µM) | 0.25 (≈ 0.423 µM) | – |
| CC1(C)SC2C(NC(=O)C(NC(=O)Nc3cnc(Nc4ccc(S(C)(=O)=O)cc4)nc3O)c3ccc(O)c(Cl)c3)C(=O)N2C1C(=O)O (stereo not drawn) [Verbindung 25] | 4 (≈ 5.66 µM) | 0.25 (≈ 0.354 µM) | 1 (≈ 1.42 µM) | 1 (≈ 1.42 µM) | 0.12 (≈ 0.17 µM) | 0.5 (≈ 0.708 µM) | 2 (≈ 2.83 µM) | 2 (≈ 2.83 µM) | 0.25 (≈ 0.354 µM) | 0.25 (≈ 0.354 µM) | – |

The next lines start with results.

| MIC [1] [µg/mL] | MIC [2] [µg/mL] | MIC [3] [µg/mL] | MIC [4] [µg/mL] | MIC [5] [µg/mL] | MIC (Proteus rettgeri BC 7) [µg/mL] | MIC [6] [µg/mL] | MIC [7] [µg/mL] | MIC [8] [µg/mL] | MIC [9] [µg/mL] | SMILES | ED50 (E.coli ATCC 11 775) [mg/kg] |
| --- | --- | --- | --- | --- | --- | --- | --- | --- | --- | --- | --- |
| 1 (≈ 1.6 µM) | 0.25 (≈ 0.4 µM) | 2 (≈ 3.2 µM) | 2 (≈ 3.2 µM) | 0.25 (≈ 0.4 µM) | 0.5 (≈ 0.799 µM) | 2 (≈ 3.2 µM) | 2 (≈ 3.2 µM) | 0.5 (≈ 0.799 µM) | 0.25 (≈ 0.4 µM) | CC1(C)S[C@@H]2[C@H](NC(=O)C(NC(=O)Nc3cnc(NCc4ccc(F)cc4)nc3O)c3ccc(O)cc3)C(=O)N2[C@H]1C(=O)O (stereo partly drawn) [Verbindung 60] | – |
| 1 (≈ 1.39 µM) | 0.25 (≈ 0.347 µM) | 2 (≈ 2.77 µM) | 1 (≈ 1.39 µM) | 0.25 (≈ 0.347 µM) | 0.5 (≈ 0.693 µM) | 2 (≈ 2.77 µM) | 2 (≈ 2.77 µM) | 0.25 (≈ 0.347 µM) | 0.25 (≈ 0.347 µM) | CNS(=O)(=O)c1ccc(Nc2ncc(NC(=O)N[C@@H](C(=O)N[C@@H]3C(=O)N4[C@@H]3SC(C)(C)[C@@H]4C(=O)O)c3ccc(O)c(Cl)c3)c(O)n2)cc1 [Verbindung 13] | – |
| 2 (≈ 2.85 µM) | 0.25 (≈ 0.357 µM) | 1 (≈ 1.43 µM) | 1 (≈ 1.43 µM) | 0.12 (≈ 0.171 µM) | 1 (≈ 1.43 µM) | 2 (≈ 2.85 µM) | 2 (≈ 2.85 µM) | 0.25 (≈ 0.357 µM) | 0.5 (≈ 0.714 µM) | CN(C)S(=O)(=O)c1ccc(Nc2ncc(NC(=O)N[C@@H](C(=O)N[C@@H]3C(=O)N4[C@@H]3SC(C)(C)[C@@H]4C(=O)O)c3ccc(O)cc3)c(O)n2)cc1 [Verbindung 15] | – |
| 2 (≈ 2.94 µM) | 0.25 (≈ 0.368 µM) | 2 (≈ 2.94 µM) | 4 (≈ 5.89 µM) | 0.12 (≈ 0.177 µM) | 0.5 (≈ 0.736 µM) | 1 (≈ 1.47 µM) | 1 (≈ 1.47 µM) | 0.25 (≈ 0.368 µM) | 0.25 (≈ 0.368 µM) | CC1(C)S[C@@H]2[C@H](NC(=O)C(NC(=O)Nc3cnc(Nc4ccc(C(N)=O)c(C(N)=O)c4)nc3O)c3ccc(O)cc3)C(=O)N2[C@H]1C(=O)O (stereo partly drawn) [Verbindung 55] | – |
